Experimental findings from ChEMBL document CHEMBL2073904, “Effect of levothyroxine administration on intestinal P-glycoprotein expression: consequences for drug disposition” (Clin Pharmacol Ther, 2002) are described below.

Data set [1] addresses T1, ATP-dependent translocase ABCB1 (Homo sapiens, UniProt P08183). Kind of data set: TP_TRANSPORTER: immunohistochemistry in vivo, duodenum. Type of data set: functional, organism-based.
For data set [2], the target named is T1, ATP-dependent translocase ABCB1. Nature of the data set: TP_TRANSPORTER: RT-PCR in vivo, duodenal. The class given is functional, organism-based, Duodenum.

T1 sequence (P08183 whole entry): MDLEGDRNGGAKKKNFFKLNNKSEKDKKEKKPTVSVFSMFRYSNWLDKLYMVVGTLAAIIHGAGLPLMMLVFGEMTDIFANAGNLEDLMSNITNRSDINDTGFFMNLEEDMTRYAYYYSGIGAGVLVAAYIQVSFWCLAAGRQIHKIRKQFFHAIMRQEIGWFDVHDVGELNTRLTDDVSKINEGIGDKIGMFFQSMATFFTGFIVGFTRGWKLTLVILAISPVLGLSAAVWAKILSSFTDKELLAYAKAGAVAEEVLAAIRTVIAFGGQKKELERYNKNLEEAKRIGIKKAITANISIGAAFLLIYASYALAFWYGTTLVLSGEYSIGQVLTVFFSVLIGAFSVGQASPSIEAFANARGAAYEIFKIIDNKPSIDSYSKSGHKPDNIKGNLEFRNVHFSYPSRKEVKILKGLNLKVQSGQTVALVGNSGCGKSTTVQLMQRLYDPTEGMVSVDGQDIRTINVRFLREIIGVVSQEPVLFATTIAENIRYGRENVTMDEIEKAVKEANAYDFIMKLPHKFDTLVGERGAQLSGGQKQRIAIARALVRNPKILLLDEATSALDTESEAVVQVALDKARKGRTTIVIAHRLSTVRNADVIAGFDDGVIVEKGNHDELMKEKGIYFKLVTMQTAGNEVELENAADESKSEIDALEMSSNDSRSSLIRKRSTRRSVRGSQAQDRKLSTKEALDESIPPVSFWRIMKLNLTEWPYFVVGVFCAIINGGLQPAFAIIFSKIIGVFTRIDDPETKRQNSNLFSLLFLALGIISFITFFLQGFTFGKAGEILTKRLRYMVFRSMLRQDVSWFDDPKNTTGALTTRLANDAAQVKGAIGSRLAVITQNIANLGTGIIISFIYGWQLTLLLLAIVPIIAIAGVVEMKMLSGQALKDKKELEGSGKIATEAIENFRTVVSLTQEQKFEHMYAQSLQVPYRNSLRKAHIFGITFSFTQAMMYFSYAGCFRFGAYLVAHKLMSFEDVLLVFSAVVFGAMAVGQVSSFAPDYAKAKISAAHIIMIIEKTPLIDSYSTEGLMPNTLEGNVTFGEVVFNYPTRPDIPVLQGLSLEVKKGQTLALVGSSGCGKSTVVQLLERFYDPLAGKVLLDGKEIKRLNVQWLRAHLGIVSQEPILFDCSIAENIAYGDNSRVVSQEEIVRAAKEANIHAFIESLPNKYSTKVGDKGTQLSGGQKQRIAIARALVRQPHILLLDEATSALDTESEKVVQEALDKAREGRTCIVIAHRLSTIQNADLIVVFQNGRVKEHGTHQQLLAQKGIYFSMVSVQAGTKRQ

In the case of `N[C@@H](Cc1cc(I)c(Oc2cc(I)c(O)c(I)c2)c(I)c1)C(=O)O` [LEVOTHYROXINE], the Activity result in data set [1] and in data set [2] was “inducer [+]” throughout.
